Legend:
[1] = tested on: integrin αIIbβ3; test: PAC-1 expression (integrin αIIbβ3 activation) by flow cytometry; format: cell-based, human; settings: collagen- and convulxin-induced
Experimental: Platelet membrane protein expression experiments were performed as previously reported, with slight modifications ([Babur et al., 2020]). WPs were added with 10 μM indomethacin to prevent platelet aggregation. After incubation, the WPs were activated by adding 1 mM calcium chloride and agonists to platelets at 37°C. After 30 min, 10 μL of WPs was taken, and the reaction was terminated by adding 90 μL Tyrode’s buffer and 10 mM EDTA. PerCP-coupled anti-CD61 antibody (1:50; Cat No. 336410; Biolegend, San Diego, CA, United States), Alexa Fluor® 647 labeled PAC-1 (1:50; Cat No. 362806; BioLegend), and FITC-coupled anti-CD62p antibody (1:50; Cat No. 555523; BD Biosciences, San Diego, CA, United States) were incubated with platelets for 30 min at 37°C in the dark. The platelet surface fluorescence intensity was analyzed using a FacsCanto II flow cytometer (BD Biosciences, San Diego, CA, United States) to analyze the expression of platelet surface membrane proteins. Cell membrane protein expression data were analyzed using FlowJo software V10.

[2] = target: T1, Recombinant human GPVI protein (Homo sapiens, UniProt Q9HCN6); test: Surface plasmon resonance (SPR); settings: Biacore S200, 25°C, 1:1 binding model
T1 construct: purchased MedChemExpress HY-P70180
T1 sequence (Q9HCN6 21-267 limits assumed): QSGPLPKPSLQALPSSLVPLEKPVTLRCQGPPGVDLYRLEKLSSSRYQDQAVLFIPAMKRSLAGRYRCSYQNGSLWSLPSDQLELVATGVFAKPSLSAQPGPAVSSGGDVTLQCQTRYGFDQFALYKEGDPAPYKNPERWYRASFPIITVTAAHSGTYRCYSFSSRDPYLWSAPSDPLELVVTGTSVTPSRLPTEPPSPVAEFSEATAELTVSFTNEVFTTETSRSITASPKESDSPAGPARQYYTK
Experimental: The SPR experiment was performed on a Biacore S200 instrument (GE Healthcare; Uppsala, Sweden) at 25°C. Recombinant human GPVI protein, rhGPVI (Cat. HY-P70180; MedChemExpress), was immobilized at the level of 4,400 response units, with 10 mM sodium acetate buffer (pH 4.5) on a Series S CM5 Sensor Chip (Cat. 29104988; cytiva) at the concentration of 50 μg/mL.

[3] = tested on: human washed platelets; test: Platelet-fibrinogen spreading assay; format: cell-based; settings: 25 μg/mL fibrinogen-coated slides
Experimental: As previously reported ([Banfi et al., 2022]), 50 μg/mL collagen and 25 μg/mL fibrinogen (Cat No. F3879-100 MG; Sigma-Aldrich, St. Louis, MO, United States) were used to coat coverslips overnight at 4°C. […] The coated slides were washed three times with PBS and blocked with 1% BSA (prepared in PBS) for 1 h at room temperature. The blocking solution was removed, and WPs were added for adhesion experiments. The WPs were allowed to adhere to the slides for 15–60 min at 37°C. The unadhered platelets were removed by PBS. The platelets were fixed with 2% paraformaldehyde solution for 15 min, broken using 1% Triton-100 for 5 min, and stained with phalloidin (1:1,000, Cat No.17466-45-4, Sigma-Aldrich) for 30 min away from light at room temperature. The platelet morphology was observed using an Olympus ix73 microscope (Olympus Corp., Shinjuku, Japan) and photographed. The number of platelet adhesions and spreading area were analyzed and calculated using ImageJ software.

[4] = tested on: human washed platelets; test: MDA, SOD and GPx activity in platelet lysate supernatant; format: cell-based; settings: convulxin- and collagen-induced
Experimental: MDA, SOD, GPx, and NADPH oxidase activity were measured as previously described ([Krotz et al., 2002]; [Paul et al., 2019]; [Pan et al., 2021]). After incubation and activation, the reaction was stopped by adding 10 mM EGTA. The platelets were pelleted by centrifugation at 20,000 × g for 10 min at 4°C and resuspended in Tyrode’s buffer with 0.1% phosphatase and protease inhibitors (Cat No. 04906837001, Roche Applied Science, Penzberg, Germany; Cat No. P-8340, Sigma, St. Louis, MO, United States). The platelets were disrupted by passing them 10 times through a 29-gauge needle, followed by centrifugation at 2000 × g for 10 min at 4°C to separate the supernatant and precipitate. The detection of MDA, SOD, and GPx in the supernatant was performed according to the kit’s instructions for SOD (Cat No. BC0170, Solarbio Life Science, Beijing, China), MDA (Cat No. S0131S, Beyotime Institute of Biotechnology, Shanghai, China) and GPx (Cat No. S0056, Beyotime Institute of Biotechnology, Shanghai, China). In order to determine NADPH oxidase (NOX) activity, platelet lysate (12.5 μg) was incubated with 10 µM lucigenin and 0.5 mM NADPH at 37°C in the dark. The absorbance values were detected at 450 nm using a spectrophotometer Multiskan FC (ThermoFisher Scientific Inc., Waltham, MA, United States). Protein content was determined by the Bradford method.

[5] = Luteolin in vivo toxicity experiments (15 days i.p.); design: species or system C57BL/6 mice
Experimental: Blood was collected from the orbits every 3 days for blood tests. On the second day, after 15 days of intraperitoneal administration, pentobarbital (45 mg/kg) was injected intraperitoneally for anesthesia, and blood was sampled from the eyes. Whole blood was left for 30–60 min, and the supernatant was centrifuged at 3,000 rpm for serum liver and kidney function testing using Unicel DxC600 (Beckman Coulter, Inc. Brea, California, US). Finally, the mice were sacrificed by cervical dislocation, and the sternum was fixed in 4% paraformaldehyde. […]

[6] = luteolin 35 μM/kg i.p. daily for 15 days
[7] = luteolin 35 μM/kg i.p. daily, 15 days, mean ± SEM

Question: With `O=c1cc(-c2ccc(O)c(O)c2)oc2cc(O)cc(O)c12` [Luteolin] as the molecule, how does the “PAC-1 expression (integrin αIIbβ3 inside-out activation)” value [1] read?
Answer: dose-dependently inhibited

Question: And the K a [2]?
Answer: 7,227 m^−1s^−1

Question: What about the K d [2] of the same molecule?
Answer: 0.03 s⁻¹

Question: What about the Kd [2] of the same molecule?
Answer: 4.13 µM

Question: And the “platelet spreading on fibrinogen” value [3]?
Answer: inhibited

Question: What about the GPx activity [4] of the same molecule?
Answer: promoted

Question: And the MDA activity [4]?
Answer: inhibited

Question: And the SOD activity [4]?
Answer: promoted

Question: What about the “liver and kidney functions” value ([5]; luteolin 35 μM/kg for 15 days) of the same molecule?
Answer: normal

Question: And the “mean platelet volume vs DMSO” value [5, 6]?
Answer: no significant differences

Question: And the “megakaryocyte counts in bone marrow vs DMSO” value [5, 6]?
Answer: no significant differences

Question: And the “peripheral platelet count vs DMSO” value [5, 6]?
Answer: no significant differences

Question: What about the Alanine aminotransferase [5, 7] of the same molecule?
Answer: 66.21 ± 5.35 U/L

Question: What about the Alkaline phosphatase [5, 7] of the same molecule?
Answer: 75.00 ± 7.34 U/L

Question: And the Aspartate aminotransferase [5, 7]?
Answer: 147.20 ± 7.03 U/L

Question: What about the Blood urea nitrogen [5, 7] of the same molecule?
Answer: 10.14 ± 0.40 mmol/L

Question: And the Creatinine [5, 7]?
Answer: 17.22 ± 2.61 µmol/L

Question: What about the Granulocyte % [5, 7] of the same molecule?
Answer: 25.22 ± 0.74%

Question: And the Granulocytes [5, 7]?
Answer: 0.36 ± 0.03 ×10^9/L

Question: What about the Lymphocyte % [5, 7] of the same molecule?
Answer: 57.39 ± 1.59%

Question: What about the Lymphocytes [5, 7] of the same molecule?
Answer: 0.80 ± 0.04 ×10^9/L

Question: What about the Monocyte % [5, 7] of the same molecule?
Answer: 17.39 ± 1.56%

Question: And the Monocytes [5, 7]?
Answer: 0.25 ± 0.04 ×10^9/L

Question: What about the Red blood cells [5, 7] of the same molecule?
Answer: 0.65 ± 0.03 ×10^12/L

Question: And the Total bilirubin [5, 7]?
Answer: 5.24 ± 0.49 µmol/L

Question: What about the White blood cells [5, 7] of the same molecule?
Answer: 1.35 ± 0.10 ×10^9/L

Question: And the γ-glutamyl transferase [5, 7]?
Answer: 6.20 ± 1.24 U/L

Question: What about the “toxic effects in C57BL/6 mice” value ([5]; mouse, in vivo) of the same molecule?
Answer: no significant toxic effects

Reference: article PMC10644720 (Frontiers in Pharmacology, 2023)
